Test results reported in the supplement of paper PMC5579334.

Assays:
[1] = tested on: HS-PSS; test: relative IC50 (inflection point of fitted dose-response curve, CellTiter-Glo viability, 72 h; top asymptote may be below 50% inhibition); higher = less potent
Summary of the method: (§1)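 Viability was scored by CellTiter-Glo ATP luminescence, scaled from vehicle to positive-control wells, with duplicates averaged where present. The cells, MPNST lines and primary human Schwann cells at 750–1000 per well, sat 72 h at 37 °C, 5% CO2, in 384-well plates preprinted with each compound at five concentrations in 10-fold steps. Four-parameter logistic fits were run on the data. These fits give drug sensitivity score and relative IC50 censored at the top concentration, and percent inhibition is reported at the top concentration.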

[2] = tested on: HSC2; test: as above
Summary of the method: as §1

[3] = tested on: STS26T; test: as above
Summary of the method: as §1

[4] = tested on: S462; test: as above
Summary of the method: as §1

[5] = tested on: S1507-2; test: as above
Summary of the method: as §1

[6] = tested on: ST8814; test: as above
Summary of the method: as §1

[7] = tested on: YST-1; test: as above
Summary of the method: as §1

[8] = tested on: HS-Sch-2; test: as above
Summary of the method: as §1

[9] = tested on: HSC1; test: as above
Summary of the method: as §1

[10] = tested on: HS-PSS; test: relative IC50 (inflection point of fitted dose-response curve, CellTox-Green cytotoxicity, 72 h; top asymptote may be below 50%); higher = less potent
Summary of the method: (§2)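 MPNST cell lines and primary human Schwann cells were incubated 72 h at 37 °C in 384-well plates holding five 10-fold compound dilutions. CellTox-Green was added before seeding at a final 1:1000 dilution and reported fluorescence from DNA released by disrupted cells. Signals were scaled to vehicle and positive-control wells, and cultures failing plate quality control were dropped. Drug sensitivity score and relative IC50 come from four-parameter logistic fits, with IC50 censored at the top concentration.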

[11] = tested on: HSC2; test: as above
Summary of the method: as §2

[12] = tested on: STS26T; test: as above
Summary of the method: as §2

[13] = tested on: S1507-2; test: as above
Summary of the method: as §2

[14] = tested on: ST8814; test: as above
Summary of the method: as §2

[15] = tested on: HSC1; test: as above
Summary of the method: as §2

Compound | relative IC50 [1] | relative IC50 [2] | relative IC50 [3] | relative IC50 [4] | relative IC50 [5] | relative IC50 [6] | relative IC50 [7] | relative IC50 [8] | relative IC50 [9] | relative IC50 [10] | relative IC50 [11] | relative IC50 [12] | relative IC50 [13] | relative IC50 [14] | relative IC50 [15]
COc1cc2c(cc1O)CC[C@@H]1[C@@H]2CC[C@]2(C)[C@@H](O)CC[C@@H]12 [2-methoxyestradiol] | 3.06 µM | 1.23 µM | 0.922 µM | 0.747 µM | 1.86 µM | 2.58 µM | 1.65 µM | 0.841 µM | 1.17 µM | > 10 µM | 1.5 µM | 1.02 µM | 1.66 µM | 3.13 µM | –
C[C@H]1C=C2C(=O)O[C@H]3CC[C@@H](C1)[C@@]23O [Galiellalactone] | 6.45 µM | 9.86 µM | 7.72 µM | 8.04 µM | 9.35 µM | 10.1 µM | 9.96 µM | 4.62 µM | 5.26 µM | > 25 µM | > 50 µM | 14.6 µM | 15.7 µM | > 50 µM | –
c1ccc2c(CCNc3ccc(Nc4ccncc4)cc3)c[nH]c2c1 [Serdemetan] | 2.71 µM | 1.35 µM | 2.44 µM | 1.15 µM | 1.62 µM | 0.887 µM | 0.876 µM | 3.74 µM | 1.37 µM | 3.24 µM | > 10 µM | 3.31 µM | 2.81 µM | 0.865 µM | –
CN(C)C[C@@H]1CCn2cc(c3ccccc32)C2=C(C(=O)NC2=O)c2cn(c3ccccc23)CCO1 [Ruboxistaurin] | 2.89 µM | 1.97 µM | 2.98 µM | 2.08 µM | 2.17 µM | 1.2 µM | 1.36 µM | 3.42 µM | 3.29 µM | 3.67 µM | 1.88 µM | 2.43 µM | 2.96 µM | – | 2.06 µM
Cc1ccc(NC(=O)c2ccc(CN3CCN(C)CC3)cc2)cc1Nc1nc(-c2cccnc2)cs1 [Masitinib] | 1.83 µM | 2.6 µM | 3.37 µM | 3.3 µM | 2.06 µM | 3.23 µM | 2.33 µM | 3.27 µM | 3.4 µM | 3.85 µM | – | 3.34 µM | 3.51 µM | 3.22 µM | 3.82 µM
Cc1c(Cn2c(C)nc3c(C(=O)O)cc(N4CCOCC4)cc32)cccc1C(F)(F)F | – | > 10 µM | – | > 10 µM | 0.931 µM | – | > 10 µM | > 10 µM | > 10 µM | > 10 µM | > 10 µM | > 10 µM | > 10 µM | > 10 µM | > 10 µM
CC(=O)Nc1cccc(-n2c(=O)n(C3CC3)c(=O)c3c(Nc4ccc(I)cc4F)n(C)c(=O)c(C)c32)c1 [Trametinib] | 0.0281 µM | 0.0185 µM | 0.00759 µM | 0.0099 µM | 0.0152 µM | 0.016 µM | > 0.25 µM | 0.0486 µM | 0.0106 µM | > 0.25 µM | – | – | 0.0458 µM | 0.0463 µM | > 0.25 µM
